Here are results for 25 compounds from PubChem BioAssay AID652026 (The Scripps Research Institute Molecular Screening Center, 2013).

Structures are written as SMILES. Active and inactive are the calls of the source.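 The calls were made as follows: active = STAT5 reporter signal fold change below 0.5 at a 10 µM dose; inactive = the rest.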

This experiment deals with T47D STAT5-luciferase reporter, prolactin-induced, luminescence. Briefly: reduction of prolactin-induced STAT5 luciferase – cell-based, luminescence, T47D, assay provider, late-stage follow-up (AID 652026). The following applies: at 10 µM; stronger effect = lower value.
Consider `CN1/C(=C\C(=O)CN2C(=O)c3ccc([N+](=O)[O-])cc3C2=O)C(C)(C)c2ccccc21`, for which the fold change was 0.76 (inactive).
In the case of `COC(=O)C1CCCCN1CC(=O)/C=C1/N(C)c2ccccc2C1(C)C` (stereo not given) it was 0.906 (inactive).
In the case of `O=C(C[n+]1ccc2ccccc2c1)c1cc2ccccc2oc1=O` it was 0.305; in that of `CN1/C(=C\C(=O)Cn2nnc(-c3ccccc3)n2)C(C)(C)c2ccccc21`, 0.724 (inactive); in that of `O=C(C[n+]1ccc2ccccc2c1)c1ccc2ccccc2c1`, 0.818 (inactive).
Take `CN1/C(=C\C(=O)C[n+]2ccccc2)C(C)(C)c2ccccc21`: the fold change was 0.777 (inactive).
As for `CN1/C(=C\C(=O)CN2CCCC2)C(C)(C)c2ccccc21`, the fold change was 0.704 (inactive).
In the case of `CN1/C(=C\C(=O)CN2C(=O)c3ccccc3C2=O)C(C)(C)c2ccccc21` it was 0.859 (inactive).
As for `CN1/C(=C\C(=O)CN2C(=O)c3ccccc3CS2(=O)=O)C(C)(C)c2ccccc21`, the fold change is 0.766 (inactive).
In the case of `CN1/C(=C\C(=O)CN2C(=O)C3CC=CCC3C2=O)C(C)(C)c2ccccc21` (stereo not given) it was 0.473; in that of `CN1/C(=C\C(=O)C[n+]2cccc(-c3ccccc3)c2)C(C)(C)c2ccccc21`, 0.367; in that of `O=C(C[n+]1ccc2ccccc2c1)c1ccccc1`, 0.909 (inactive).
In the case of `CCOC(=O)C1CCCN(CC(=O)/C=C2/N(C)c3ccccc3C2(C)C)C1` (stereo not given) it was 0.856 (inactive).
In the case of `CN1/C(=C\C(=O)Cn2c(=O)c(C#N)cn(C)c2=O)C(C)(C)c2ccccc21` it was 0.739 (inactive); in that of `CN1/C(=C\C(=O)CN2CCc3ccccc3C2)C(C)(C)c2ccccc21`, 0.962 (inactive); in that of `COc1cccc2cc(C(=O)C[n+]3ccc4ccccc4c3)c(=O)oc12`, 0.965 (inactive).
As to `O=C(C[n+]1ccc2ccccc2c1)Nc1ccccc1`, the fold change is 0.895 (inactive).
In the case of `Cc1cc[n+](CC(=O)/C=C2\N(C)c3ccccc3C2(C)C)c(C)c1` it was 0.67 (inactive); in that of `COc1ccc2oc(=O)c(C(=O)C[n+]3ccc4ccccc4c3)cc2c1`, 0.843 (inactive).
Regarding `CN1/C(=C\C(=O)Cn2cnc3ccc(Cl)cc3c2=O)C(C)(C)c2ccccc21`, the fold change is 0.845 (inactive).
On to `CN1/C(=C\C(=O)Cn2cc(C(F)(F)F)ccc2=O)C(C)(C)c2ccccc21`, for which the fold change was 0.971 (inactive).
Then `CN1/C(=C\C(=O)CN2C(=O)c3ccccc3S2(=O)=O)C(C)(C)c2ccccc21`, with 0.733 (inactive); and `Cc1cc[n+](CC(=O)/C=C2\N(C)c3ccccc3C2(C)C)cc1`, with 0.738 (inactive).
Then `CC(C)(C)C(=O)C[n+]1ccc2ccccc2c1`, with 0.696 (inactive).
For the compound `CN1/C(=C\C(=O)CN2C(=O)NC(C)(c3ccc(Cl)cc3)C2=O)C(C)(C)c2ccccc21` (stereo not given), the fold change is 0.769 (inactive).
